Data on 25 compounds can be found in the NIST ThermoML archive (doi:10.1021/acs.jced.8b00080).

SMILES strings stand for the structures. ± gives the expanded uncertainty stated by the source.

This series can be described thus: activity coefficient (dimensionless); of the first substance listed, at infinite dilution; xn = mol fraction of the nth substance listed. The note with it: 101.33 kPa, Liquid, Chromatography, x1 = 0.

For `C=CCCCC` [hex-1-ene] + C[n+]1ccn(CCO)c1.O=S(=O)([O-])C(F)(F)C(F)(F)C(F)(F)C(F)(F)F, the activity coefficient was determined as 15.7 ± 0.57 (303 K); 12.4 ± 0.45 (313 K); 9.71 ± 0.35 (323 K); 7.62 ± 0.27 (333 K); 6.07 ± 0.22 (343 K); 4.97 ± 0.18 (353 K).

With `CCCCCCCC` [octane] + C[n+]1ccn(CCO)c1.O=S(=O)([O-])C(F)(F)C(F)(F)C(F)(F)C(F)(F)F, the activity coefficient (303 K) was found to be 99 ± 3.6; the activity coefficient (313 K) is 75.8 ± 2.8; the activity coefficient (323 K) is 61.2 ± 2.2; the activity coefficient (333 K) is 47.3 ± 1.7; the activity coefficient (343 K) was 37.1 ± 1.4; the activity coefficient (353 K) is 28.4 ± 1.

As to `CO` [methanol] + C[n+]1ccn(CCO)c1.O=S(=O)([O-])C(F)(F)C(F)(F)C(F)(F)C(F)(F)F, the activity coefficient reads like this: (303 K) 1.1 ± 0.08; (313 K) 1.02 ± 0.08; (323 K) 0.93 ± 0.08; (333 K) 0.9 ± 0.08; (343 K) 0.87 ± 0.08; (353 K) 0.82 ± 0.08.

Regarding `C#CCCCCC` [1-heptyne] + C[n+]1ccn(CCO)c1.O=S(=O)([O-])C(F)(F)C(F)(F)C(F)(F)C(F)(F)F, the activity coefficient runs as follows: (303 K) 16.7 ± 0.6; (313 K) 15.1 ± 0.54; (323 K) 13.4 ± 0.48; (333 K) 11.9 ± 0.43; (343 K) 10.4 ± 0.37; (353 K) 9.29 ± 0.33.

Regarding `C1COCCO1` [1,4-dioxane] + C[n+]1ccn(CCO)c1.O=S(=O)([O-])C(F)(F)C(F)(F)C(F)(F)C(F)(F)F, the activity coefficient by setting is: (303 K) 1.67 ± 0.09; (313 K) 1.64 ± 0.09; (323 K) 1.61 ± 0.09; (333 K) 1.59 ± 0.09; (343 K) 1.56 ± 0.09; (353 K) 1.53 ± 0.09.

With `c1ccccc1` [benzene] + C[n+]1ccn(CCO)c1.O=S(=O)([O-])C(F)(F)C(F)(F)C(F)(F)C(F)(F)F, the activity coefficient came out at 4.71 ± 0.17 (303 K); 4.27 ± 0.16 (313 K); 3.85 ± 0.15 (323 K); 3.34 ± 0.13 (333 K); 2.95 ± 0.12 (343 K); 2.65 ± 0.12 (353 K).

With `CCCCCCC` [heptane] + C[n+]1ccn(CCO)c1.O=S(=O)([O-])C(F)(F)C(F)(F)C(F)(F)C(F)(F)F, the activity coefficient by setting is: (303 K) 53 ± 1.9; (313 K) 39.7 ± 1.4; (323 K) 30.9 ± 1.1; (333 K) 23.6 ± 0.86; (343 K) 18 ± 0.65; (353 K) 13.9 ± 0.5.

Regarding `ClC(Cl)Cl` [trichloromethane] + C[n+]1ccn(CCO)c1.O=S(=O)([O-])C(F)(F)C(F)(F)C(F)(F)C(F)(F)F, the activity coefficient was 2.27 ± 0.11 (303 K); 2.2 ± 0.11 (313 K); 2.11 ± 0.1 (323 K); 2.01 ± 0.1 (333 K); 1.91 ± 0.1 (343 K); 1.84 ± 0.1 (353 K).

Take `CC1CCCCC1` [methylcyclohexane] + C[n+]1ccn(CCO)c1.O=S(=O)([O-])C(F)(F)C(F)(F)C(F)(F)C(F)(F)F: the activity coefficient runs as follows: (303 K) 38.1 ± 1.4; (313 K) 29.7 ± 1.1; (323 K) 24.3 ± 0.88; (333 K) 19 ± 0.69; (343 K) 15.2 ± 0.55; (353 K) 12.3 ± 0.44.

Consider `C=CCCCCCCCC` [1-decene] + C[n+]1ccn(CCO)c1.O=S(=O)([O-])C(F)(F)C(F)(F)C(F)(F)C(F)(F)F, for which the activity coefficient (303 K) stood at 122 ± 4.5; the activity coefficient (313 K) came to 107 ± 3.9; the activity coefficient (323 K) came out at 91.5 ± 3.3; the activity coefficient (333 K) came to 79.6 ± 2.9; the activity coefficient (343 K) amounted to 67.7 ± 2.5; the activity coefficient (353 K) stood at 59.2 ± 2.1.

For the compound `C#CCCCC` [1-hexyne] + C[n+]1ccn(CCO)c1.O=S(=O)([O-])C(F)(F)C(F)(F)C(F)(F)C(F)(F)F, the activity coefficient reads like this: (303 K) 10.4 ± 0.37; (313 K) 9.24 ± 0.33; (323 K) 7.92 ± 0.28; (333 K) 6.97 ± 0.25; (343 K) 6.03 ± 0.21; (353 K) 5.18 ± 0.19.

As to `Cc1ccccc1` [toluene] + C[n+]1ccn(CCO)c1.O=S(=O)([O-])C(F)(F)C(F)(F)C(F)(F)C(F)(F)F, the activity coefficient (303 K) amounted to 7.4 ± 0.26; the activity coefficient (313 K) came out at 6.83 ± 0.24; the activity coefficient (323 K) came out at 6.21 ± 0.22; the activity coefficient (333 K) is 5.44 ± 0.19; the activity coefficient (343 K) is 4.94 ± 0.18; the activity coefficient (353 K) turned out to be 4.44 ± 0.16.

For `Cc1ccccc1C` [1,2-dimethylbenzene] + C[n+]1ccn(CCO)c1.O=S(=O)([O-])C(F)(F)C(F)(F)C(F)(F)C(F)(F)F, the activity coefficient stood at 10.4 ± 0.37 (303 K); 9.7 ± 0.35 (313 K); 8.9 ± 0.32 (323 K); 7.81 ± 0.28 (333 K); 7.04 ± 0.25 (343 K); 6.52 ± 0.23 (353 K).

On to `C=CCCCCCC` [oct-1-ene] + C[n+]1ccn(CCO)c1.O=S(=O)([O-])C(F)(F)C(F)(F)C(F)(F)C(F)(F)F, for which the activity coefficient came out at 53.9 ± 2 (303 K); 45.2 ± 1.6 (313 K); 36.6 ± 1.3 (323 K); 29.5 ± 1.1 (333 K); 24.3 ± 0.88 (343 K); 19.9 ± 0.72 (353 K).

`CCCO` [propan-1-ol] + C[n+]1ccn(CCO)c1.O=S(=O)([O-])C(F)(F)C(F)(F)C(F)(F)C(F)(F)F: the activity coefficient (303 K) was found to be 2.22 ± 0.11; the activity coefficient (313 K) amounted to 2.07 ± 0.1; the activity coefficient (323 K) came out at 1.91 ± 0.1; the activity coefficient (333 K) came to 1.81 ± 0.1; the activity coefficient (343 K) was 1.66 ± 0.09; the activity coefficient (353 K) stood at 1.53 ± 0.09.

Turning to `C#CCCC` [1-pentyne] + C[n+]1ccn(CCO)c1.O=S(=O)([O-])C(F)(F)C(F)(F)C(F)(F)C(F)(F)F, the activity coefficient reads like this: (303 K) 5.99 ± 0.21; (313 K) 5.07 ± 0.18; (323 K) 4.21 ± 0.16; (333 K) 3.68 ± 0.14; (343 K) 3.11 ± 0.13; (353 K) 2.59 ± 0.12.

In the case of `Cc1ccc(C)cc1` [1,4-dimethylbenzene] + C[n+]1ccn(CCO)c1.O=S(=O)([O-])C(F)(F)C(F)(F)C(F)(F)C(F)(F)F, the activity coefficient (303 K) turned out to be 11.9 ± 0.43; the activity coefficient (313 K) was 11 ± 0.39; the activity coefficient (323 K) was 9.88 ± 0.35; the activity coefficient (333 K) worked out at 8.78 ± 0.31; the activity coefficient (343 K) was determined as 8 ± 0.28; the activity coefficient (353 K) was 7.59 ± 0.27.

Turning to `CCO` [ethanol] + C[n+]1ccn(CCO)c1.O=S(=O)([O-])C(F)(F)C(F)(F)C(F)(F)C(F)(F)F, the activity coefficient is 1.56 ± 0.09 (303 K); 1.48 ± 0.09 (313 K); 1.38 ± 0.09 (323 K); 1.31 ± 0.09 (333 K); 1.22 ± 0.08 (343 K); 1.14 ± 0.08 (353 K).

Regarding `Cc1cccc(C)c1` [1,3-dimethylbenzene] + C[n+]1ccn(CCO)c1.O=S(=O)([O-])C(F)(F)C(F)(F)C(F)(F)C(F)(F)F, the activity coefficient reads like this: (303 K) 11.6 ± 0.42; (313 K) 10.8 ± 0.39; (323 K) 9.86 ± 0.35; (333 K) 8.71 ± 0.31; (343 K) 7.91 ± 0.28; (353 K) 7.2 ± 0.26.

As for `C1CCOC1` [tetrahydrofuran] + C[n+]1ccn(CCO)c1.O=S(=O)([O-])C(F)(F)C(F)(F)C(F)(F)C(F)(F)F, the activity coefficient (303 K) amounted to 1.73 ± 0.1; the activity coefficient (313 K) worked out at 1.7 ± 0.09; the activity coefficient (323 K) was 1.64 ± 0.09; the activity coefficient (333 K) was found to be 1.59 ± 0.09; the activity coefficient (343 K) turned out to be 1.52 ± 0.09; the activity coefficient (353 K) amounted to 1.48 ± 0.09.

For the compound `CCc1ccccc1` [ethylbenzene] + C[n+]1ccn(CCO)c1.O=S(=O)([O-])C(F)(F)C(F)(F)C(F)(F)C(F)(F)F, the activity coefficient runs as follows: (303 K) 12.1 ± 0.43; (313 K) 11 ± 0.39; (323 K) 10.1 ± 0.36; (333 K) 8.82 ± 0.31; (343 K) 7.93 ± 0.28; (353 K) 7.09 ± 0.25.

Turning to `CCCCC` [pentane] + C[n+]1ccn(CCO)c1.O=S(=O)([O-])C(F)(F)C(F)(F)C(F)(F)C(F)(F)F, the activity coefficient is, setting by setting: (303 K) 9.38 ± 0.34; (313 K) 6.94 ± 0.25; (323 K) 5.46 ± 0.2; (333 K) 4.34 ± 0.16; (343 K) 3.39 ± 0.14; (353 K) 2.75 ± 0.12.

Consider `CCCCCCCCC` [nonane] + C[n+]1ccn(CCO)c1.O=S(=O)([O-])C(F)(F)C(F)(F)C(F)(F)C(F)(F)F, for which the activity coefficient was determined as 157 ± 5.7 (303 K); 132 ± 4.8 (313 K); 105 ± 3.8 (323 K); 88 ± 3.2 (333 K); 71 ± 2.6 (343 K); 54.1 ± 2 (353 K).

`C1CCCCC1` [cyclohexane] + C[n+]1ccn(CCO)c1.O=S(=O)([O-])C(F)(F)C(F)(F)C(F)(F)C(F)(F)F: the activity coefficient runs as follows: (303 K) 24.3 ± 0.88; (313 K) 19.1 ± 0.69; (323 K) 15.2 ± 0.55; (333 K) 11.7 ± 0.42; (343 K) 9.39 ± 0.34; (353 K) 7.54 ± 0.27.

For the compound `CCCCCC` [hexane] + C[n+]1ccn(CCO)c1.O=S(=O)([O-])C(F)(F)C(F)(F)C(F)(F)C(F)(F)F, the activity coefficient runs as follows: (303 K) 23.5 ± 0.85; (313 K) 17.7 ± 0.64; (323 K) 13.7 ± 0.49; (333 K) 10.6 ± 0.38; (343 K) 8 ± 0.29; (353 K) 6.31 ± 0.23.
